Results: US6294568A, “5-arylpyrrole derivatives” (priority 1997, dated 2001)

Experiments:
[1] = tested on: pain threshold of brewer's yeast inflamed hind paw; test: Analgesic Action Test (Randall et al.); format: in vivo, SD rats; settings: 3 mg/kg oral, 3 hours
Experimental: SD rats (6 rats per group) fasted overnight were employed for the test. After the measurement of pain threshold values of the left and right hind paws twice using an analgesimeter, the rats were injected subcutaneously with 0.1 ml of 20% brewer's yeast solution at the plantar area of the right hind paw to elicit inflammation. Two hours after the elicitation of inflammation, the pain threshold values of the left and right hind paws were measured and, immediately after the measurement, the test samples were administered orally to the rats. Three hours after the administration, the pain threshold values of the left and right hind paws were measured. […] The dosage amount of each of the test samples was 3 mg/kg.
Pain threshold value rising rate (%)=((pain threshold value of 3 hours after drug administration-pain threshold value of 2 hours after yeast administration)/(pain threshold value before yeast administration-pain threshold value of 2 hours after yeast administration))×100
Pain threshold value fluctuation rate (%)=(1 -(pain threshold value of 3 hours after drug administration/pain threshold value of 2 hours after […]

carrageenan footedema = test: Carrageenan Footedema Suppression Test; format: in vivo, SD rats; settings: oral; paw volume three hours after carrageenan administration
Brewer's Yeast Fever = test: Antipyretic Action Test With Respect To Brewer's Yeast Fever; format: in vivo, rats
Experimental: The antipyretic action was measured as described in the following. A sensor was inserted into the rectum of each rats and the body temperature of one hour after the insertion was recorded as the basal body temperature. The rats were injected subcutaneously with 2 ml/body of 20% brewer's yeast at the region of back and, 18 hours after the injection, the intrafebrile body temperatures were measured. Rats who had shown not less than 0.75° C. of body temperature elevation were selected to whom the test samples was administered orally. The body temperatures of the selected rats were measured every one hour for the following 5 hours. The dosage of each of the test samples was 10 mg/kg.

Human COX-2 = molecular target: T1, Human COX-2 (Homo sapiens, UniProt P35354); test: Human COX-2 Inhibitory Activity Test (LPS-induced PGE2 in blood); format: cell-based
T1 construct: endogenous in cells; host or cells: heparinised whole blood of a healthy human donor pretreated with aspirin, stimulated with LPS (own knowledge: COX-2 is induced in monocytes)
T1 sequence (P35354 18-604): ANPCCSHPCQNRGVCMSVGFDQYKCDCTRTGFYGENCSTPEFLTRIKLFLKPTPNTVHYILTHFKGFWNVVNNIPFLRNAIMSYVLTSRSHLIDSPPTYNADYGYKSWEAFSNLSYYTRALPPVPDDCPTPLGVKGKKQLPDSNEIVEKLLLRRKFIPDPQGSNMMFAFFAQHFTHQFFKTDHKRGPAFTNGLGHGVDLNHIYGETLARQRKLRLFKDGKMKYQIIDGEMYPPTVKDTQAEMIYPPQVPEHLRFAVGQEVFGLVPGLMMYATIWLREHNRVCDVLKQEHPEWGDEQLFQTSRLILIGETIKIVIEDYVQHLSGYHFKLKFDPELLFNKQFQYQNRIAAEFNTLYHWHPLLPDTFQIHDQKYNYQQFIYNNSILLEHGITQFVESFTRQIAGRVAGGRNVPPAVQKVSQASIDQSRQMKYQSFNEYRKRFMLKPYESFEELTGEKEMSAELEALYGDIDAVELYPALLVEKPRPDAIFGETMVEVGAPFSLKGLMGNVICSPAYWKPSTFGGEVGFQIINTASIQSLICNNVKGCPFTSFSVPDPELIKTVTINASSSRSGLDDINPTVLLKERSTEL
Experimental: COX-1 and COX-2 activities were measured according to the method of Patrignani et al. (J. Pharm. Exp. Ther. Vol. 271, 1705 (1994)).
(2) COX-2 activity was measured in the following procedure. To blood collected from a healthy normal who had taken 330 mg of aspirin 48 hours before the blood collection in order to inhibit the COX-1 activity, 10 unit/ml of sodium heparin was added, and then pipetted into glass test tubes by 1 ml. 10 μg/ml of Lipopolysaccharide (LPS) was added thereto and the plasma obtained by the specified operation was stored at -40° C. until the measurement for the amount of prostaglandin E2 (PGE2). Test samples containing the test samples were treated in the same manner of operation as described above.
(4) The measurement for the PGE2 content was conducted in the following procedure. In a part of 96 well plate coated with goat anti-mouse antibody, 2 wells were alloted respectively to a blank well, Non-specific Binding (NSB) well, Maximum Binding (B0) well, standard wells at seven concentrations of PGE2 (1000 pg/ml) in doubling dilution ranging from 1000-15.6 pg/ml. The rest of the wells were used for the sample measurement. EIA buffer was added to the NSB wells (100 μl) and to the B0 wells (50 μl), respectively. 50 μl of each of the standard dilution was added in an order from thinner to thicker concentrations. Each of the samples was added to the rest of the wells in an amount of 50 μl. Then, 50 μl of PGE2 tracer was added to each of the wells except for blank wells. Further, 50 μl PGE2 monoclonal antibody was added to each of the wells except for the NSB wells and blank wells, then the well plate was covered with a plastic film and the reaction continued at room temperature for 18 hours. When the reaction was terminated, the wells were washed 5 times with a wash buffer. 200 μl of Elman's reagent was added to each of the wells, and then the well plate was covered with a plastic film and developed for 60 minutes in a dark place. The absorbance at 405 nm was measured by an Immuno Reader (NJ-2000, manufactured by Nippon Intermed Co., Ltd.). From the measurement result, %B/B0 was calculated and, applying it to the approximation formula of Hill Plot, the concentration of the samples was determined to be 40 times concentration. The dilution was conducted with an EIA buffer throughout the Test Example 3.

## Cc1cc(-c2ccc(F)cc2)c(-c2ccc(S(C)(=O)=O)cc2)[nH]1 [Preparation Example 1, 4-(4-fluorophenyl)-2-methyl-5-(4-methylsulfonylphenyl)-1H-pyrrole]
[1]; Left Hind Paw (non-inflammatory paw)
  Pain Threshold Value Fluctuation Rate: 2.47%
[1]; Right Hind Paw (inflammatory paw)
  Pain Threshold Value Rising Rate: 33.3%
Carrageenan footedema
  Edematization Suppression rate: 35.5%
Brewer's Yeast Fever; 10 mg/kg oral, 1 hour after
  Body temperature 1 Hour After: 37.98 °C
Brewer's Yeast Fever; 10 mg/kg oral, 3 hours after
  Body temperature 3 Hours After: 37.10 °C
Brewer's Yeast Fever; 10 mg/kg oral, 5 hours after
  Body temperature 5 Hours After: 37.13 °C
Brewer's Yeast Fever; 18 hours after yeast injection, before administration, 10 mg/kg group
  Intrafebrile Body Temperature: 39.08 °C
Brewer's Yeast Fever; one hour after sensor insertion, before yeast, 10 mg/kg group
  Basal Body Temperature: 37.54 °C
Human COX-2; human blood, LPS, PGE2, IC50 from Hill Plot
  IC50: 0.95 µM
Human COX-2; ratio of IC50 COX-1 to COX-2
  COX-1/COX-2: 683
